According to article PMC9551036, “A selective and orally bioavailable VHL-recruiting PROTAC achieves SMARCA2 degradation in vivo” (Nature Communications, 2022):
Several values for one entry are separate records, joined by “and”; a condition that tells them apart may be missing. Equal entries are not always repeated. Where two headings read alike, the source gives them in different places.

Biological target: SMARCA2 (Homo sapiens, UniProt P51531)
Assay: SMARCA2 capillary electrophoresis protein assay in other cell lines (A549, NCI-H1568, HCT116, LU99, HCC-364, HCT-15, HCC4006, SK-N-AS)
Type: cell-based
Design: endogenous in cells; host or cells: RKO, NCI-H1568, A549, HCT116, LU99, HCC-364, HCT-15, HCC4006, SK-N-AS
Conditions: for LogEC50: log10 of concentration in mol/l
Description: 130,000–200,000 cells were seeded in 24-well plates and incubated until settled down or overnight. Compounds were dissolved in DMSO and added to cells in indicated concentrations using a digital dispenser following an optional media change. Cells were incubated for 4 or 18 h as indicated. For SMARCA2/4 half-life determination, 150,000 or 200,000 cells were seeded in 24-well plates. The next day, 50 µg/ml cycloheximide (Sigma) was added and cells were incubated for 1–24 h. For SMARCA2/4 re-synthesis measurements, 200,000 cells were seeded in 24-well plates. The next day, 100 nM compound 6 was added for 4 h to degrade SMARCA2/4, and a sample was taken as baseline for normalisation. To allow re-synthesis, a VHL binder (compound 32, 25 or 50 µM) was then added for 3 or 24 h. Medium was removed, cells were washed with PBS and lysed with 80 µl Lysis Buffer (MSD Tris Lysis Buffer (#R60TX-2) + Halt Inhibitor Cocktail (100x) + Benzonase 0.5 µL/ml). Samples were frozen at −80 °C and thawed at room temperature before use. Samples were transferred to a V-bottom plate and insoluble debris was pelleted by centrifugation for 5 min at maximum speed. The supernatant was transferred to a fresh plate. Master Mix and Ladder were prepared according to manufacturer’s instructions for 12–230 kDa Wes Separation Module, 8 × 25 capillary cartridges, Protein Simple #SM-W004 with Anti-Rabbit Detection Module for Wes, Peggy Sue or Sally Sue, Protein Simple #DM-001. 4.8 µl lysate were mixed with 1.2 µl Master Mix to achieve a protein concentration of ~0.5 µg/µl. Antibodies were diluted in Antibody Diluent II (SMARCA2 Sigma #HPA029981 RRID:AB_10602406 1:25–100, SMARCA4 Cell Signalling #49360 clone D1Q7F RRID:AB_2728743 1:15–120 or Abcam #ab110641 clone EPNCIR111A RRID:AB_10861578 1:60, GAPDH Abcam #ab9485 RRID:AB_307275 1:250). Wes plates were prepared and run according to manufacturer’s instructions. Proteins were quantified with accompanying Compass Software. SMARCA2/4 protein levels were normalised to GAPDH. […] Where applicable, curves were fitted using a 4-parametric logistic model.

[1] = HCC-364_SM2, four-parameter fit
[2] = SK-N-AS_SM2, four-parameter fit

SMARCA2, sequence (P51531 whole entry): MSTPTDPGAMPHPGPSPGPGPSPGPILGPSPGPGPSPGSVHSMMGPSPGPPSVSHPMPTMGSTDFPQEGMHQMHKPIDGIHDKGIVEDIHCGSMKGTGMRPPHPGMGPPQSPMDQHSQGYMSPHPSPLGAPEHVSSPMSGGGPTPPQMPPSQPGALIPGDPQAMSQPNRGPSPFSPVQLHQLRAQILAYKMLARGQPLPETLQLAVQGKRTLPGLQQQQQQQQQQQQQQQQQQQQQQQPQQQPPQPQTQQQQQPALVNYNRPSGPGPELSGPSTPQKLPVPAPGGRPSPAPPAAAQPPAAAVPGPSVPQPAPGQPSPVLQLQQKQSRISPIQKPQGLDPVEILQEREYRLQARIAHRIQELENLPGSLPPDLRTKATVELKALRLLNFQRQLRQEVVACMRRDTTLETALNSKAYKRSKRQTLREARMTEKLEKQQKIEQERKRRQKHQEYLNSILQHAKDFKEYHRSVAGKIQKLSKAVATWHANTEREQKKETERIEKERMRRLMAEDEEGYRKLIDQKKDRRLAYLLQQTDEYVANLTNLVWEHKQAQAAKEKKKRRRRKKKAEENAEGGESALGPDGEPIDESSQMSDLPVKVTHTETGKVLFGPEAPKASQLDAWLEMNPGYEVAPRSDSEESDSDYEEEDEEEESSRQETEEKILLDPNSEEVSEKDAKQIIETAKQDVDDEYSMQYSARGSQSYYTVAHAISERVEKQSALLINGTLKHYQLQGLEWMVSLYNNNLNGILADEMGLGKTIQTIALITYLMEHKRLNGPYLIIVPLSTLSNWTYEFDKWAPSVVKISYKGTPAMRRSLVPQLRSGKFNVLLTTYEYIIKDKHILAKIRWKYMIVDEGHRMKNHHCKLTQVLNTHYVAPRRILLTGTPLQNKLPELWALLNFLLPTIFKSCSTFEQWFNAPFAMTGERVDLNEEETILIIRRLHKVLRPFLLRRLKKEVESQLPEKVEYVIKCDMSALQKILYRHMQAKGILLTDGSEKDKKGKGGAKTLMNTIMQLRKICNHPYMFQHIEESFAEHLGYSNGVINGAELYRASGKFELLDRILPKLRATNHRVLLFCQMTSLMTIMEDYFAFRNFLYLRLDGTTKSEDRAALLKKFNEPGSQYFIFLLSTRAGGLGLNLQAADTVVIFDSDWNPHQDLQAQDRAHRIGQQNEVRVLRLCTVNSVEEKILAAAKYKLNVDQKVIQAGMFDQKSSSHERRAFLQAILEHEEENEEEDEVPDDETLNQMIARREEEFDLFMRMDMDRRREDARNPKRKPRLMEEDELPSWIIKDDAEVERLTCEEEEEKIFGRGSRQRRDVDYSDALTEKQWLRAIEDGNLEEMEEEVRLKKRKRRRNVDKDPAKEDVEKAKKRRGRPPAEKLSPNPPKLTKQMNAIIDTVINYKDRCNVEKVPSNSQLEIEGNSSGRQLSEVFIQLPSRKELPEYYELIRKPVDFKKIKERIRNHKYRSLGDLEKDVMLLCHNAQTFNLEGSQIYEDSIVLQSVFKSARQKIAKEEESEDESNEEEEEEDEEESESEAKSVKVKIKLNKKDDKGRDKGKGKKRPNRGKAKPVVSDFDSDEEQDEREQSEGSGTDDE

Cc1ncsc1-c1ccc(C(CCC(C)CCN2CCC(c3ccc4c(c3)n(C3CCCC3)c3nc(=O)c5c(Br)cccc5n43)CC2)NC(=O)C2CC(O)CN2C(=O)C(NC(=O)C2(F)CC2)C(C)(C)C)cc1 (stereo not shown) [ACBI2]
LogEC50 (HCC4006_SM2): -7.779 | DC50 (HCC4006_SM2, protein degradation, four-parameter fit, read-out: EC50 (the source's name)): 16.6 nM | Bottom (best-fit value, % protein remaining) [1]: 10.4% | HillSlope [1]: -2.48 | LogEC50 (HCC-364_SM2): -8.138 | DC50 (HCC-364_SM2, protein degradation, four-parameter fit, read-out: EC50 (the source's name)): 7.28 nM | Bottom (% protein remaining, four-parameter fit) (HCT116, SM2): 21.77% | HillSlope (protein remaining) (HCT116, SM2): -1.136 | Top (% protein remaining, four-parameter fit) (HCT116, SM2): 121.9% | Bottom (best-fit value, % protein remaining) (HCT-15_SM2, four-parameter fit): -16.7% | HillSlope (HCT-15_SM2, four-parameter fit): -0.6998 | LogEC50 (HCT-15_SM2): -6.787 | DC50 (HCT-15_SM2, protein degradation, four-parameter fit, read-out: EC50 (the source's name)): 163 nM | Bottom (best-fit value, % protein remaining) (LU99_SM2, four-parameter fit): 4.814% | HillSlope (LU99_SM2, four-parameter fit): -1.159 | LogEC50 (LU99_SM2): -8.209 | DC50 (LU99_SM2, protein degradation, four-parameter fit, read-out: EC50 (the source's name)): 6.18 nM | Dmax (NCI-H1568 (4 h), mean ± SD): 86 ± 6% | DC50 (NCI-H1568 (4 h), mean ± SD, read-out: SMARCA2 DC50): 13 ± 14 nM | Bottom (% protein remaining, four-parameter fit) (NCI-H1568, 4h): 6.286% | HillSlope (protein remaining) (NCI-H1568, 4h): -1.738 | LogEC50 (protein remaining) (NCI-H1568, 4h): -8.191 log10(mol/l) | Top (% protein remaining, four-parameter fit) (NCI-H1568, 4h): 87.56% | % protein remaining (NCI-H1568, 4h, conc 1.00001e-10 mol/l): 96.6234% and 94.5884% | % protein remaining (NCI-H1568, 4h, conc 1.52416e-10 mol/l): 71.8933% | % protein remaining (NCI-H1568, 4h, conc 3.1623e-10 mol/l): 72.7669% and 75.3978% | % protein remaining (NCI-H1568, 4h, conc 4.57247e-10 mol/l): 96.5512% | % protein remaining (NCI-H1568, 4h, conc 1.00001e-9 mol/l): 90.5385% and 93.373% | % protein remaining (NCI-H1568, 4h, conc 1.37174e-9 mol/l): 95.3256% | % protein remaining (NCI-H1568, 4h, conc 3.1623e-9 mol/l): 36.986% | % protein remaining (NCI-H1568, 4h, conc 4.11523e-9 mol/l): 94.3111% | % protein remaining (NCI-H1568, 4h, conc 1.00001e-8 mol/l): 19.3906% and 27.9502% | % protein remaining (NCI-H1568, 4h, conc 1.23457e-8 mol/l): 37.9279% | % protein remaining (NCI-H1568, 4h, conc 3.1623e-8 mol/l): 8.319% and 13.4554% | % protein remaining (NCI-H1568, 4h, conc 3.7037e-8 mol/l): 11.4262% | % protein remaining (NCI-H1568, 4h, conc 1.11111e-7 mol/l): 8.194% | % protein remaining (NCI-H1568, 4h, conc 3.1623e-7 mol/l): 2.032% and 3.543% | % protein remaining (NCI-H1568, 4h, conc 3.33333e-7 mol/l): 6.383% | % protein remaining (NCI-H1568, 4h, conc 1e-6 mol/l): 9.793% | % protein remaining (NCI-H1568, 4h, conc 1.00001e-6 mol/l): 2.382% and 3.308% | % protein remaining (NCI-H1568, 4h, conc 3.1623e-6 mol/l): 2.029% and 3.947% | DC50 (NCI-H1568, 4h, individual replicates, read-out: NCI-H1568 (4h) SMARCA2 DC50): 4.72 nM and 32.5 nM and 13 nM | DC50 (NCI-H1568, 4h, read-out: EC50 (protein remaining)): 6.44 nM | Bottom (% protein remaining, four-parameter fit) (NCI-H1568, 8h): 6.315% | HillSlope (protein remaining) (NCI-H1568, 8h): -1.161 | LogEC50 (protein remaining) (NCI-H1568, 8h): -8.44 log10(mol/l) | Top (% protein remaining, four-parameter fit) (NCI-H1568, 8h): 119.8% | % protein remaining (NCI-H1568, 8h, conc 4.57247e-10 mol/l): 112.24% | % protein remaining (NCI-H1568, 8h, conc 1.37174e-9 mol/l): 87.7845% | % protein remaining (NCI-H1568, 8h, conc 4.11523e-9 mol/l): 63.6536% | % protein remaining (NCI-H1568, 8h, conc 1.23457e-8 mol/l): 24.8248% | % protein remaining (NCI-H1568, 8h, conc 3.7037e-8 mol/l): 13.998% | % protein remaining (NCI-H1568, 8h, conc 1.11111e-7 mol/l): 8.2% | % protein remaining (NCI-H1568, 8h, conc 3.33333e-7 mol/l): 6.313% | % protein remaining (NCI-H1568, 8h, conc 1e-6 mol/l): 7.6382% | % protein remaining (NCI-H1568, 8h, conc 3e-6 mol/l): 6.726% | DC50 (NCI-H1568, 8h, read-out: EC50 (protein remaining)): 3.63 nM | Bottom (% protein remaining, four-parameter fit) (NCI-H1568, 18h): 2.272% | HillSlope (protein remaining) (NCI-H1568, 18h): -0.7655 | LogEC50 (protein remaining) (NCI-H1568, 18h): -9.556 log10(mol/l) | Top (% protein remaining, four-parameter fit) (NCI-H1568, 18h): 215.6% | % protein remaining (NCI-H1568, 18h, conc 1.52416e-10 mol/l): 134.073% | % protein remaining (NCI-H1568, 18h, conc 4.57247e-10 mol/l): 84.9656% | % protein remaining (NCI-H1568, 18h, conc 1.37174e-9 mol/l): 57.0296% | % protein remaining (NCI-H1568, 18h, conc 4.11523e-9 mol/l): 23.442% | % protein remaining (NCI-H1568, 18h, conc 1.23457e-8 mol/l): 12.5025% | % protein remaining (NCI-H1568, 18h, conc 3.7037e-8 mol/l): 5.834% | % protein remaining (NCI-H1568, 18h, conc 1.11111e-7 mol/l): 3.6967% | % protein remaining (NCI-H1568, 18h, conc 3.33333e-7 mol/l): 2.8858% | % protein remaining (NCI-H1568, 18h, conc 1e-6 mol/l): 3.302% | % protein remaining (NCI-H1568, 18h, conc 3e-6 mol/l): 4.787% | DC50 (NCI-H1568, 18h, read-out: EC50 (protein remaining)): 0.278 nM | Bottom (best-fit value, % protein remaining) [2]: 20.4% | HillSlope [2]: -1.475 | LogEC50 (SK-N-AS_SM2): -7.468 | DC50 (SK-N-AS_SM2, protein degradation, four-parameter fit, read-out: EC50 (the source's name)): 34 nM
